From ChEMBL document CHEMBL5331091, “Design, synthesis and evaluation of antitumor activity of selective PRMT6 inhibitors” (Eur J Med Chem, 2023)

Legend:
HCC827 [1] = experiment: Antiproliferative activity against human HCC827 cells for 3 days by MTT assay; conditions: HCC827, 72 h
HCC827 [2] = experiment: Induction of apoptosis in human HCC827 cells assessed as late apoptotic cells at 40 uM for 3 days by Annexin V and PI staining based flow cytometric analysis (reference value: 0.05%); assay type: functional; conditions: time 3 day
HCC827 [3] = experiment: Induction of apoptosis in human HCC827 cells assessed as early apoptotic cells at 40 uM for 3 days by Annexin V and PI staining based flow cytometric analysis (reference value: 0.44%); assay type: functional; conditions: time 3 day
MDA-MB-435 [4] = experiment: Induction of apoptosis in human MDA-MB-435 cells assessed as early apoptotic cells at 40 uM for 3 days by Annexin V and PI staining based flow cytometric analysis (reference value: 0.38%); assay type: functional; conditions: time 3 day
MDA-MB-435 [5] = experiment: Antiproliferative activity against human MDA-MB-435 cells for 3 days by MTT assay; conditions: MDA-MB-435, 72 h
MDA-MB-435 [6] = experiment: Antiproliferative activity against human MDA-MB-435 cells for 5 days by MTT assay; conditions: MDA-MB-435, 120 h
[7] = biological target: Protein arginine N-methyltransferase 6 (Homo sapiens, UniProt Q96LA8)
Description: Inhibition of PRMT6 (unknown origin) by AlphaLISA assay in vitro assay

MDA-MB-435 [8] = experiment: Induction of apoptosis in human MDA-MB-435 cells assessed as necrotic cells at 40 uM for 3 days by Annexin V and PI staining based flow cytometric analysis (reference value: 0.61%); assay type: functional; conditions: time 3 day
MDA-MB-435 [9] = experiment: Antiproliferative activity against human MDA-MB-435 cells for 7 days by MTT assay; conditions: MDA-MB-435, 168 h
HCC827 [10] = experiment: Antiproliferative activity against human HCC827 cells for 5 days by MTT assay; conditions: HCC827, 120 h
HCC827 [11] = experiment: Induction of apoptosis in human HCC827 cells assessed as necrotic cells at 40 uM for 3 days by Annexin V and PI staining based flow cytometric analysis (reference value: 0.65%); assay type: functional; conditions: time 3 day
HCC827 [12] = experiment: Antiproliferative activity against human HCC827 cells for 7 days by MTT assay; conditions: HCC827, 168 h
MDA-MB-435 [13] = experiment: Induction of apoptosis in human MDA-MB-435 cells assessed as late apoptotic cells at 40 uM for 3 days by Annexin V and PI staining based flow cytometric analysis (reference value: 0.45%); assay type: functional; conditions: time 3 day

Chain of Protein arginine N-methyltransferase 6 (Q96LA8 whole entry): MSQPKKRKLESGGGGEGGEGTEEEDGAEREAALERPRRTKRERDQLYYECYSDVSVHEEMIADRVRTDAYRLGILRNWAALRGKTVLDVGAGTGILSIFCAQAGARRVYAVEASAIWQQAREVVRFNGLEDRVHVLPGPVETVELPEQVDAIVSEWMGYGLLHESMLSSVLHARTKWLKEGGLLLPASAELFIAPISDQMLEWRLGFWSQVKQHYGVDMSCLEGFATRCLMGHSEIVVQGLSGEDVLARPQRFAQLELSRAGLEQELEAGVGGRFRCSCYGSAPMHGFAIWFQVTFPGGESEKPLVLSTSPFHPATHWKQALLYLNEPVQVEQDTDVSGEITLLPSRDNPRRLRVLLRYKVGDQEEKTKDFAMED

Row | Structure (SMILES) | IC50 [7] [µM] | further results
1 | CNCCN(C)Cc1c[nH]nc1-c1ccc(O[C@H]2C[C@H](OCCC3CCOCC3)C2)cc1 | 0.0071 | IC50 (HCC827 [1]): > 100 µM; Activity (HCC827 [2]): 6.69%; Activity (HCC827 [3]): 3.11%; Activity (MDA-MB-435 [4]): 0.93%; IC50 (MDA-MB-435 [5]): 94.7 µM; IC50 (MDA-MB-435 [6]): 90.4 µM; Activity (MDA-MB-435 [8]): 0.64%; IC50 (MDA-MB-435 [9]): 1.1 µM; IC50 (HCC827 [10]): 8.57 µM; Activity (HCC827 [11]): 3.65%; IC50 (HCC827 [12]): 4.15 µM; Activity (MDA-MB-435 [13]): 2.82%
2 | CN(CCN)Cc1cncc(-c2cccc(NS(=O)(=O)c3cccs3)c2)c1 | > 5 | 
3 | CN(CCN)Cc1cncc(-c2ccc(CN3CCOCC3)cc2)c1 | 5.24 | 
4 | CNCCN(C)Cc1cncc(-c2cccc(NS(=O)(=O)c3ccc(C)cc3)c2)c1 | > 5 | 
5 | CNCCN(C)Cc1cncc(-c2cccc(NS(=O)(=O)C(F)(F)F)c2)c1 | 0.684 | 
6 | CNCCN(C)Cc1cncc(-c2cccc(NS(=O)(=O)c3cccs3)c2)c1 | 2.57 | 
7 | CNCCN(C)Cc1cncc(-c2cccc(N(S(=O)(=O)c3ccc(C(F)(F)F)cc3)S(=O)(=O)c3ccc(C(F)(F)F)cc3)c2)c1 | > 5 | 
8 | CNCCN(C)Cc1cncc(-c2cccc(NS(=O)(=O)c3ccc([N+](=O)[O-])cc3)c2)c1 | > 5 | 
9 | CN(CCN)Cc1cncc(-c2cccc(NS(=O)(=O)c3ccc([N+](=O)[O-])cc3)c2)c1 | > 5 | 
10 | NCCNC(=O)c1cncc(-c2ccc(NS(=O)(=O)C3CC3)cc2)c1 | > 5 | 
11 | CN(CCN)Cc1cncc(-c2cccc(NS(=O)(=O)C3CC3)c2)c1 | 2.97 | 
12 | CN(CCN)Cc1cncc(-c2ccc(OC(F)(F)F)cc2)c1 | 6.36 | 
13 | CNCCN(C)Cc1cc(-c2ccc(NS(=O)(=O)C3CC3)cc2)ccn1 | 1.06 | 
14 | CNCCN(C)Cc1cncc(-c2ccc(NS(=O)(=O)C(F)(F)F)cc2)c1 | 0.213 | 
15 | CNCCN(C)C(=O)c1cncc(-c2ccc(NS(=O)(=O)C3CC3)cc2)c1 | > 5 | 
16 | CNCCN(C)Cc1cncc(-c2cccc(NS(=O)(=O)N(C)C)c2)c1 | 2.83 | 
17 | CN(CCN)Cc1cncc(-c2cccc(NS(=O)(=O)N(C)C)c2)c1 | 4.4 | 
18 | CN(CCN)Cc1cncc(-c2cccc(NS(=O)(=O)c3cnn(C)c3)c2)c1 | > 5 | 

Row | Structure (SMILES) | IC50 [7] [µM] | further results
19 | CNCCN(C)Cc1cncc(-c2ccc(NC(=O)N3CCOCC3)cc2)c1 | 1.35 | 
20 | CNCCN(C)Cc1cncc(-c2cccc(NC(=O)N3CCOCC3)c2)c1 | 1.54 | 
21 | COc1cc(OC)cc(-c2cncc(CN(C)CCN)c2)c1 | > 10 | 
22 | CNCCN(C)Cc1cncc(-c2cccc(NS(=O)(=O)c3ccc(C(F)(F)F)cc3)c2)c1 | > 5 | 
23 | CNCCNC(=O)c1cncc(-c2ccc(NS(=O)(=O)C3CC3)cc2)c1 | > 5 | 
24 | CNCCN(C)Cc1ccnc(-c2ccc(NS(=O)(=O)C3CC3)cc2)c1 | 0.03 | 
25 | CNCCN(C)Cc1ccncc1-c1ccc(NS(=O)(=O)C2CC2)cc1 | 3.09 | 
26 | CN(CCN)C(=O)c1cncc(-c2ccc(NS(=O)(=O)C3CC3)cc2)c1 | > 5 | 
27 | CNCCN(C)Cc1cncc(-c2cccc(NS(=O)(=O)c3ccccc3C)c2)c1 | 1.05 | 
28 | CN(CCN)Cc1cncc(-c2ccc(NS(=O)(=O)C3CC3)cc2)c1 | 1.8 | 
29 | CNCCN(C)Cc1cncc(-c2cccc(N(S(=O)(=O)c3ccccc3C)S(=O)(=O)c3ccccc3C)c2)c1 | > 5 | 
30 | CNCCN(C)Cc1cncc(-c2cccc(NC(=O)C(C)C)c2)c1 | 1.59 | 
31 | CNCCN(C)Cc1cncc(-c2cccc(NS(=O)(=O)c3cnn(C)c3)c2)c1 | > 5 | 
32 | CNCCN(C)Cc1cncc(-c2cccc(NS(=O)(=O)Cc3ccccc3)c2)c1 | > 5 | 
33 | CNCCN(C)C(=O)c1cncc(-c2cccc(NS(=O)(=O)C3CC3)c2)c1 | > 5 | 
34 | CNCCN(C)Cc1cncc(-c2cccc(NS(=O)(=O)C3CC3)c2)c1 | 0.262 | 
35 | Nc1ncnc2c1ncn2[C@@H]1O[C@H](CSCC[C@H](N)C(=O)O)[C@@H](O)[C@H]1O [S-ADENOSYLHOMOCYSTEINE] | 2.18 | 
